Data reported in the NIST ThermoML archive (doi:10.1021/acs.jced.8b00589).
± gives the expanded uncertainty stated by the source.

Assay: xn = mol fraction of the nth substance listed
Settings: for surface tension liquid-gas: Ring tensiometer; for viscosity / speed of sound / mass density: 100 kPa, Liquid; for viscosity: Capillary tube (Ostwald / Ubbelohde) method; for speed of sound: Frequency=2 MHz, Linear variable-path acoustic interferometer; for mass density: Vibrating tube method

CCC(C)(C)OC [2-methoxy-2-methylbutane] + CCCCCC
Settings | mass density [kg/m3] | speed of sound [m/s] | surface tension liquid-gas [mN/m] | viscosity [mPa·s]
298.15 K, x1 = 0.1632 | 672.8 ± 1 | 1077.8 ± 10 | 17.99 ± 0.85 | 0.311 ± 0.03
298.15 K, x1 = 0.2584 | 683.2 ± 1 | 1082.2 ± 10 | 18.21 ± 0.85 | 0.318 ± 0.03
298.15 K, x1 = 0.3742 | 695.5 ± 1 | 1087.5 ± 10 | 18.5 ± 0.85 | 0.327 ± 0.03
298.15 K, x1 = 0.4276 | 701.6 ± 1 | 1088.6 ± 10 | 18.62 ± 0.85 | 0.331 ± 0.03
298.15 K, x1 = 0.5464 | 714.8 ± 1 | 1092.8 ± 10 | 18.73 ± 0.85 | 0.346 ± 0.03
298.15 K, x1 = 0.6121 | 722.3 ± 1 | 1096.1 ± 10 | 18.88 ± 0.85 | 0.356 ± 0.03
298.15 K, x1 = 0.7457 | 737.2 ± 1 | 1103.5 ± 10 | 19.15 ± 0.85 | 0.381 ± 0.03
298.15 K, x1 = 0.8625 | 750.1 ± 1 | 1112.2 ± 10 | 19.42 ± 0.85 | 0.402 ± 0.03
298.15 K, x1 = 1 | 765.6 ± 1 | 1118 ± 10 | 19.72 ± 0.85 | 0.424 ± 0.03
308.15 K, x1 = 0.1632 | 663.2 ± 1 | 1035.5 ± 10 | 16.88 ± 0.84 | 0.274 ± 0.03
308.15 K, x1 = 0.2584 | 673.8 ± 1 | 1039.4 ± 10 | 17.1 ± 0.84 | 0.281 ± 0.03
308.15 K, x1 = 0.3742 | 686.5 ± 1 | 1045.1 ± 10 | 17.4 ± 0.84 | 0.293 ± 0.03
308.15 K, x1 = 0.4276 | 692.3 ± 1 | 1046.8 ± 10 | 17.52 ± 0.84 | 0.298 ± 0.03
308.15 K, x1 = 0.5464 | 705.2 ± 1 | 1049.6 ± 10 | 17.64 ± 0.85 | 0.313 ± 0.03
308.15 K, x1 = 0.6121 | 712.5 ± 1 | 1053.2 ± 10 | 17.79 ± 0.85 | 0.322 ± 0.03
308.15 K, x1 = 0.7457 | 727.4 ± 1 | 1060.4 ± 10 | 18.07 ± 0.85 | 0.342 ± 0.03
308.15 K, x1 = 0.8625 | 740.7 ± 1 | 1069.2 ± 10 | 18.35 ± 0.85 | 0.362 ± 0.03
308.15 K, x1 = 1 | 756.3 ± 1 | 1075.6 ± 10 | 18.66 ± 0.85 | 0.39 ± 0.03
318.15 K, x1 = 0.1632 | 653.5 ± 1 | 984.7 ± 10 | 15.78 ± 0.84 | 0.249 ± 0.03
318.15 K, x1 = 0.2584 | 663.8 ± 1 | 988.75 ± 10 | 16.01 ± 0.84 | 0.256 ± 0.03
318.15 K, x1 = 0.3742 | 676.6 ± 1 | 994.36 ± 10 | 16.33 ± 0.84 | 0.266 ± 0.03
318.15 K, x1 = 0.4276 | 682.4 ± 1 | 996.61 ± 10 | 16.46 ± 0.84 | 0.271 ± 0.03
318.15 K, x1 = 0.5464 | 695.3 ± 1 | 1002.4 ± 10 | 16.58 ± 0.84 | 0.284 ± 0.03
318.15 K, x1 = 0.6121 | 702.5 ± 1 | 1006.8 ± 10 | 16.74 ± 0.84 | 0.292 ± 0.03
318.15 K, x1 = 0.7457 | 717.7 ± 1 | 1013.8 ± 10 | 17.03 ± 0.84 | 0.311 ± 0.03
318.15 K, x1 = 0.8625 | 730.6 ± 1 | 1022.8 ± 10 | 17.32 ± 0.84 | 0.331 ± 0.03
318.15 K, x1 = 1 | 746.3 ± 1 | 1030.2 ± 10 | 17.65 ± 0.85 | 0.357 ± 0.03
323.15 K, x1 = 0.1632 | 648.6 ± 1 | 963.82 ± 10 | 15.22 ± 0.84 | 0.239 ± 0.03
323.15 K, x1 = 0.2584 | 658.8 ± 1 | 967.24 ± 10 | 15.47 ± 0.84 | 0.245 ± 0.03
323.15 K, x1 = 0.3742 | 671.5 ± 1 | 971.83 ± 10 | 15.78 ± 0.84 | 0.254 ± 0.03
323.15 K, x1 = 0.4276 | 677.3 ± 1 | 973.34 ± 10 | 15.92 ± 0.84 | 0.258 ± 0.03
323.15 K, x1 = 0.5464 | 690.4 ± 1 | 977.27 ± 10 | 16.04 ± 0.84 | 0.27 ± 0.03
323.15 K, x1 = 0.6121 | 697.6 ± 1 | 980.49 ± 10 | 16.2 ± 0.84 | 0.277 ± 0.03
323.15 K, x1 = 0.7457 | 712.5 ± 1 | 984.8 ± 10 | 16.5 ± 0.84 | 0.294 ± 0.03
323.15 K, x1 = 0.8625 | 725.8 ± 1 | 994.84 ± 10 | 16.8 ± 0.84 | 0.312 ± 0.03
323.15 K, x1 = 1 | 741.4 ± 1 | 1003 ± 10 | 17.13 ± 0.84 | 0.335 ± 0.03
328.15 K, x1 = 0.1632 | 643.6 ± 1 | 942.3 ± 10 | 14.67 ± 0.83 | 0.23 ± 0.03
328.15 K, x1 = 0.2584 | 653.7 ± 1 | 945.14 ± 10 | 14.92 ± 0.84 | 0.235 ± 0.03
328.15 K, x1 = 0.3742 | 666.5 ± 1 | 949.52 ± 10 | 15.24 ± 0.84 | 0.244 ± 0.03
328.15 K, x1 = 0.4276 | 672.3 ± 1 | 951.24 ± 10 | 15.38 ± 0.84 | 0.248 ± 0.03
328.15 K, x1 = 0.5464 | 685.3 ± 1 | 955.05 ± 10 | 15.5 ± 0.84 | 0.259 ± 0.03
328.15 K, x1 = 0.6121 | 692.6 ± 1 | 958.72 ± 10 | 15.67 ± 0.84 | 0.266 ± 0.03
328.15 K, x1 = 0.7457 | 707.5 ± 1 | 963.63 ± 10 | 15.97 ± 0.84 | 0.283 ± 0.03
328.15 K, x1 = 0.8625 | 720.8 ± 1 | 974.08 ± 10 | 16.27 ± 0.84 | 0.301 ± 0.03
328.15 K, x1 = 1 | 736.5 ± 1 | 985.22 ± 10 | 16.62 ± 0.84 | 0.323 ± 0.03
